PubChem BioAssay (NCI)
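Tested at 5 concentrations; 48 h exposure; 96-well plates; endpoints linearly interpolated, else capped at highest concentration. Here, GI50 denotes the concentration required for 50% inhibition of growth. TGI: concentration producing complete growth inhibition.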 Where a SMILES comes first, the peptide text is derived from it. [ ]: non-standard residue; d: D form. 2Nal = N[CH](Cc1ccc2ccccc2c1)C(=O)O

What was measured:
Assay in all cases: DTP human tumour cell line panel, 48 h
[1] = system: SF-268 CNS
[2] = system: MALME-3M melanoma
[3] = system: SF-539 CNS
[4] = system: TK-10 renal
[5] = system: KM12 colon
[6] = system: UACC-62 melanoma
[7] = system: OVCAR-8 ovarian
[8] = system: OVCAR-5 ovarian
[9] = system: SK-MEL-5 melanoma
[10] = system: DU-145 prostate

Question: For `Cc1c(C2Cc3ccccc3N2)c2ccccc2n1C` (stereo unspecified), which TGI [1] is on record?
Answer: > 100 µM

Question: What about the TGI [2] of the same compound?
Answer: > 100 µM

Question: What about the TGI [3] of the same compound?
Answer: > 100 µM

Question: And the TGI [4]?
Answer: > 100 µM

Question: And the TGI [5]?
Answer: > 100 µM

Question: And the TGI [6]?
Answer: > 100 µM

Question: And the TGI [7]?
Answer: > 100 µM

Question: What about the TGI [8] of the same compound?
Answer: > 100 µM

Question: And the TGI [9]?
Answer: > 100 µM

Question: Which TGI [1] does the source give for `CC(=O)ON(C(C)=O)C1C(COC(c2ccccc2)(c2ccccc2)c2ccccc2)OC2OC3(CCCC3)OC21` (stereo unspecified) here?
Answer: > 100 µM

Question: What about the TGI [2] of the same compound?
Answer: > 100 µM

Question: What about the TGI [3] of the same compound?
Answer: > 100 µM

Question: What about the TGI [4] of the same compound?
Answer: > 100 µM

Question: And the TGI [5]?
Answer: > 100 µM

Question: What about the TGI [6] of the same compound?
Answer: > 100 µM

Question: What about the TGI [7] of the same compound?
Answer: > 100 µM

Question: And the TGI [8]?
Answer: > 100 µM

Question: What about the TGI [9] of the same compound?
Answer: > 100 µM

Question: Which TGI [1] does the source give for `COc1ccc(NC(=O)CCc2cc(C(C)(C)C)n[nH]2)cc1` here?
Answer: > 100 µM

Question: And the TGI [2]?
Answer: > 100 µM

Question: What about the TGI [3] of the same compound?
Answer: > 100 µM

Question: And the TGI [4]?
Answer: > 100 µM

Question: What about the TGI [5] of the same compound?
Answer: > 100 µM

Question: And the TGI [6]?
Answer: > 100 µM

Question: And the TGI [7]?
Answer: > 100 µM

Question: And the TGI [8]?
Answer: > 100 µM

Question: What about the TGI [9] of the same compound?
Answer: > 100 µM

Question: For `CN(C)CCC1(C2=CCCC2)CC/C(=C\c2ccccc2Cl)C1=O` (stereo unspecified), which TGI [1] is on record?
Answer: 28.7 µM

Question: And the TGI [2]?
Answer: 28 µM

Question: And the TGI [3]?
Answer: 28.9 µM

Question: And the TGI [4]?
Answer: 33.5 µM

Question: And the TGI [5]?
Answer: 27.3 µM

Question: And the TGI [6]?
Answer: 29.8 µM

Question: What about the TGI [7] of the same compound?
Answer: 29.3 µM

Question: What about the TGI [8] of the same compound?
Answer: 29.1 µM

Question: And the TGI [9]?
Answer: 26.7 µM

Question: Which TGI [1] does the source give for `CC(=N)N(C)O` here?
Answer: > 100 µM

Question: And the TGI [2]?
Answer: > 100 µM

Question: And the TGI [3]?
Answer: > 100 µM

Question: What about the TGI [4] of the same compound?
Answer: > 100 µM

Question: And the TGI [5]?
Answer: > 100 µM

Question: And the TGI [6]?
Answer: > 100 µM

Question: And the TGI [7]?
Answer: > 100 µM

Question: And the TGI [8]?
Answer: > 100 µM

Question: What about the TGI [9] of the same compound?
Answer: > 100 µM

Question: For `COc1ccc(/C=C2\CC(C)CC3C2=NN(c2ccccc2)C3c2ccc(OC)c(OC)c2)cc1OC` (stereo unspecified), which GI50 [1] is on record?
Answer: 3.31 µM

Question: What about the TGI [1] of the same compound?
Answer: 37.2 µM

Question: What about the GI50 [2] of the same compound?
Answer: 8.64 µM

Question: And the TGI [2]?
Answer: > 100 µM

Question: What about the GI50 [3] of the same compound?
Answer: 4.46 µM

Question: What about the TGI [3] of the same compound?
Answer: 24.9 µM

Question: And the GI50 [4]?
Answer: 5.78 µM

Question: What about the TGI [4] of the same compound?
Answer: > 100 µM

Question: What about the GI50 [10] of the same compound?
Answer: 4.17 µM

Question: What about the TGI [10] of the same compound?
Answer: > 100 µM

Question: And the GI50 [6]?
Answer: 4.29 µM

Question: And the TGI [6]?
Answer: 17.3 µM

Question: What about the GI50 [7] of the same compound?
Answer: 6.78 µM

Question: What about the TGI [7] of the same compound?
Answer: > 100 µM

Question: And the GI50 [8]?
Answer: 3.16 µM

Question: What about the TGI [8] of the same compound?
Answer: 12.1 µM

Question: What about the GI50 [9] of the same compound?
Answer: 2.41 µM

Question: What about the TGI [9] of the same compound?
Answer: 6.94 µM

Question: `CC(C)C(NC(=O)C(CCCCN)NC(=O)C(Cc1c[nH]c2ccccc12)NC(=O)C(Cc1ccc(O)cc1)NC(=O)C(CS)NC(=O)C(N)Cc1ccc2ccccc2c1)C(=O)NC(CS)C(=O)NC(C(N)=O)C(C)O` (stereo unspecified) (H-[2Nal]CYWKVCT-NH2; configuration not given here) was tested. Which TGI [1] did it give?
Answer: > 12.5 µM

Question: What about the TGI [2] of the same compound?
Answer: > 12.5 µM

Question: What about the GI50 [3] of the same compound?
Answer: > 100 µM

Question: And the TGI [3]?
Answer: > 100 µM

Question: What about the TGI [10] of the same compound?
Answer: > 12.5 µM

Question: What about the GI50 [5] of the same compound?
Answer: > 100 µM

Question: And the TGI [5]?
Answer: > 100 µM

Question: And the GI50 [6]?
Answer: > 100 µM

Question: And the TGI [6]?
Answer: > 100 µM

Question: And the GI50 [7]?
Answer: > 100 µM

Question: And the TGI [7]?
Answer: > 100 µM

Question: And the TGI [8]?
Answer: > 12.5 µM

Question: And the TGI [9]?
Answer: > 12.5 µM

Question: How did the TGI [1] turn out when `O=C(O)CCSC(=O)Nc1ccccc1Cl` was run?
Answer: > 100 µM

Question: What about the TGI [2] of the same compound?
Answer: > 100 µM

Question: And the TGI [3]?
Answer: > 100 µM

Question: What about the TGI [4] of the same compound?
Answer: > 100 µM

Question: What about the TGI [5] of the same compound?
Answer: > 100 µM

Question: And the TGI [6]?
Answer: > 100 µM

Question: What about the TGI [7] of the same compound?
Answer: > 100 µM

Question: What about the TGI [8] of the same compound?
Answer: > 100 µM

Question: What about the TGI [9] of the same compound?
Answer: > 100 µM

Question: What does the source list for `COc1ccc2c(c1)N(CCO)C1=C(C(=O)OC1)C2c1ccccc1` (stereo unspecified)?
Answer: GI50 [1]: 2.64 µM; TGI [1]: > 50 µM; GI50 [4]: 2.11 µM; TGI [4]: > 50 µM; GI50 [10]: 1.74 µM; TGI [10]: 6.01 µM; GI50 [5]: 1.48 µM; TGI [5]: 12 µM; GI50 [6]: 1.72 µM; TGI [6]: > 50 µM; GI50 [7]: 2.03 µM; TGI [7]: > 50 µM; GI50 [8]: 3.77 µM; TGI [8]: > 50 µM; GI50 [9]: 1.58 µM; TGI [9]: 8.83 µM
